The values that follow come from patent publication US8486947B2, “Treatment of Parkinson's disease, obstructive sleep apnea, dementia with Lewy bodies, vascular dementia with non-imidazole alkylamines histamine H3-receptor ligands” (Bioprojet, priority 2005, dated 2013).

Series [1] concerns rats. The experiment in a line: Tolerability of the combinations with acetylcholinesterase inhibitors in rats. It is filed as in vivo, rat. To be noted: combination with donepezil, rivastigmine or gallanthamine. The protocol: (§1) Generally, dementia with Lewi bodies is treated with acetylcholinesterase inhibitors such as donepezil, rivastigmine or gallanthamine. These agents increase the acetylcholine concentration in the is brain extracellular space. Combinations of a compound of the invention and one of these agents were tested on rats. The drug was selected from donepezil, rivastigmine or gallanthamine and administered in combination with 3-(4-Chlorophenyl)propyl 3-piperidinopropyl ether in rats.

In series [2] the test system is acetylcholine concentration in brain. Description: Rat brain microdialysis of acetylcholine, combination with acetylcholinesterase inhibitors. As to conditions: rats, co-administered with donepezil, rivastigmine or gallanthamine. In kind it is in vivo. The protocol:
as §1

Series [3] concerns patients suffering from obstructive sleep apnea (OSA). Description: Two clinical studies (single-blinded or double-blinded against placebo, polysomnographical test) in OSA patients. It is filed as in vivo, human. As to conditions: 40 mg p.o. once a day during 3 and 7 days. The protocol:
Two clinical studies were conducted on patients suffering from obstructive sleep apnea (OSA), in a single-blinded or double-blinded trial against placebo with a polysomnographical test on patients.
In both studies, patients were administered with 3-(4-Chlorophenyl)propyl 3-piperidinopropyl ether at 40 mg p.o. once a day during 3 and 7 days.
In both studies, daytime sleepiness was improved in accordance with the Epworth test or according to the frequency of naps or daytime sleepiness occurrences. The average daytime sleepiness could be reduced by up to 50%.

Series [4] concerns MPTP-treated cats (experimentally induced parkinsonism). The experiment in a line: Sleep-wakefulness patterns by electromyographic and EEG recordings in MPTP-treated parkinsonian cats. It is filed as in vivo, cat. To be noted: oral dose of 10 mg/kg. The protocol: As assessed by electromyographic and EEG recordings, treatment with BF 2.-649 (3-(4-Chlorophenyl)propyl 3-piperidinopropyl ether), a potent and selective H3-antagonist, at an oral dose of 10 mg/kg, normalized these sleep-wakefulness patterns.

Series [5] deals with rats suffering from Parkinson. The experiment in a line: Combination with an anti-parkinson drug in rats. In kind it is in vivo, rat. The protocol:
(§2) Combinations of a compound of the invention and a anti-parkinson drug were tested on rats and humans suffering from Parkinson.

The test system of series [6] is patients with a diagnostic of OSA. Description: Single-blind trial against placebo in male patients with obstructive sleep apnea, 3-day treatment. In kind it is in vivo, human. To be noted: 40 mg oral once a day, 3 days. The protocol: In a group of 10 male patients with a diagnostic of OSA, confirmed by polysomnography performed during a night in an hospital setting, an Epswoth score above 12 and a body mass index of less than 35, the effect of a 3-day treatment with BF 2.649 (3-(4-Chlorophenyl)propyl 3-piperidinopropyl ether) was assessed in a single-blind trial against placebo, at a fixed oral dose of 40 mg once a day.
In addition the nocturnal sleep duration was not decreased and its quality was improved. This clinical trial establishes for the first time the utility of H3 antagonists/inverse agonists in OSA.

In series [7] the test system is humans suffering from Parkinson. Description: Combination with an anti-parkinson drug in humans suffering from Parkinson. It is filed as in vivo, human. As to conditions: 40 mg p.o. The protocol: as §2
Series [8] relates to histamine H3-receptor. As to conditions: literature reports; cited from earlier work.
The test system of series [9] is PD patients. As to conditions: cited from earlier work.
Series [10] deals with Parkinsonian rat (unilateral 6-hydroxydopamine). To be noted: 6-hydroxydopamine rat, co-administered with levodopa; cited from earlier work.
Setting [11] is: combination with anti-parkinson drug.
The mark [12] stands for this setting: combination with ropinirole, lisuride, bromocriptine, levodopa or pramiprexole.

For the molecule `Clc1ccc(CCCOCCCN2CCCCC2)cc1` [BF 2.649, 3-(4-Chlorophenyl)propyl 3-piperidinopropyl ether], the “tolerability, in particular cardiovascular parameters” value in [1] is “well tolerated”. Further, in series [2], the “increase of the acetylcholine concentration in brain (microdialysis)” value is on record as “potentialised”. In addition, in series [3], the “daytime sleepiness (Epworth test, frequency of naps or daytime sleepiness occurrences)” value is listed as “improved” and the “reduction of average daytime sleepiness” value was “up to 50%”. The “long periods of sleep (model of excessive daytime sleepiness)” value in series [4] is recorded as “largely suppressed”. In addition, in series [4] (EMG and EEG recordings), the sleep-wakefulness patterns result is recorded as “normalized”. Further, the “dose of the anti-parkinson drug needed” value in [5] (setting [11]) is “allowed lower doses”. The motor symptoms result in series [5] (setting [12]) is “significantly improved”. In [6], the nocturnal sleep duration result was “not decreased”, the nocturnal sleep quality entry was “improved” and the “occurrence of diurnal sleep episodes” value was “total prevention”. In addition, the “decrease in the number of diurnal somnolence episodes” value in series [6] (all subjects) is recorded as “more than 60%”. The “dose of the anti-parkinson drug needed” value in series [7] (setting [11]) is given as “allowed lower doses”. Besides, in [7] (setting [12]), the motor symptoms entry is reported as “significantly improved”.
As to `CNCCc1ccccn1` [betahistine], the H3-receptor antagonism potency result in series [8] is “very low potency”.
Take `CN(C)CCCSC(=N)N` [dimaprit]: the H3-receptor antagonism potency entry in series [8] is reported as “very low potency”.
As to `NC(=O)C[S+]([O-])C(c1ccccc1)c1ccccc1` (stereo not shown) [modafinil], the “treatment of excessive daytime sleepiness” value in series [9] is given as “limited success”.
For the molecule `c1ccc(C2(N3CCCCC3)CCCCC2)cc1` [phencyclidine], the H3-receptor antagonism potency result in series [8] was “very low potency”.
As to `S=C(NC1CCCCC1)N1CCC(c2cnc[nH]2)CC1` [thioperamide], in series [10], the “effect of levodopa on turning behaviour upon co-administration” value is “not modified”.
